The results in this text go back to patent US20240166652A1, “MODULATORS OF THE INTEGRATED STRESS PATHWAY” (Calico Life Sciences LLC, priority 2017, published 2024).

pEC50: −log10 of the molar value. Where only a bound is given, the exact number is not on record here.

The subject of the assay is ATF4 luciferase reporter in HEK293T cells. Description: ATF4-Luc assay (ATF4 luciferase reporter, tunicamycin-treated HEK293T cells). To be noted: Homo sapiens, HEK-293T; HEK293T cells carrying the ATF4 luciferase reporter, 1 μg/mL tunicamycin, 7 hours. It counts as cell-based, human. On the technique in general: In a reporter assay the amount or activity of a reporter protein is the signal.
For the molecule `O=C(COc1nc2c(s1)CCCC2)NC12CCC(NC(=O)COc3ccc(Cl)c(F)c3)(CC1)[C@@H](O)C2` [Compound 578, 2-(4-chloro-3-fluorophenoxy)-N-[(2S)-2-hydroxy-4-{2-[(4,5,6,7-tetrahydro-1,3-benzothiazol-2-yl)oxy]acetamido}bicyclo[2.2.2]octan-1-yl]acetamide], the pEC50 is under 5.70.

On to `O=C(COc1ccc(Cl)cc1)NC12CC(NC(=O)COc3ccc4c(c3)OC(F)(F)O4)(C1)C2` [Compound 580, 2-(4-chlorophenoxy)-N-(3-{2-[(2,2-difluoro-2H-1,3-benzodioxol-5-yl)oxy]acetamido}bicyclo[1.1.1]pentan-1-yl)acetamide], for which the pEC50 is over 8.00.

For `O=C(COc1ccc(F)cc1)NC12CCC(NC(=O)COc3ccc(Cl)c(Cl)c3)(CC1)[C@@H](O)C2` [Compound 581, 2-(3,4-dichlorophenoxy)-N-{(2S)-4-[2-(4-fluorophenoxy)acetamido]-2-hydroxybicyclo[2.2.2]octan-1-yl}acetamide], the pEC50 was over 8.00.

Consider `O=C(COc1ccc(Cl)cc1)NC12CCC(NC(=O)COc3ccc(Cl)c(Cl)c3)(CC1)[C@@H](O)C2` [Compound 582, 2-(4-chlorophenoxy)-N-{(3S)-4-[2-(3,4-dichlorophenoxy)acetamido]-3-hydroxybicyclo[2.2.2]octan-1-yl}acetamide], for which the pEC50 is over 8.00.

For `O=C(COc1ccc(C(F)(F)F)nc1)NC12CCC(NC(=O)COc3ccc(Cl)c(Cl)c3)(CC1)[C@@H](O)C2` [Compound 583, 2-(3,4-dichlorophenoxy)-N-[(2S)-2-hydroxy-4-(2-{[6-(trifluoromethyl)pyridin-3-yl]oxy}acetamido)bicyclo[2.2.2]octan-1-yl]acetamide], the pEC50 is over 8.00.

Consider `O=C(COc1ccc(F)c(F)c1)NC12CC(NC(=O)COc3ccc(Cl)c(Cl)c3)(C1)C2` [Compound 584, 2-(3,4-dichlorophenoxy)-N-{3-[2-(3,4-difluorophenoxy)acetamido]bicyclo[1.1.1]pentan-1-yl}acetamide], for which the pEC50 is over 8.00.

On to `O=C(COc1ccc(F)c(F)c1)NC12CCC(NC(=O)COc3ccc(Cl)c(F)c3)(CC1)[C@@H](O)C2` [Compound 586, 2-(4-chloro-3-fluorophenoxy)-N-{(2S)-4-[2-(3,4-difluorophenoxy)acetamido]-2-hydroxybicyclo[2.2.2]octan-1-yl}acetamide], for which the pEC50 is over 8.00.

With `O=C(COc1ccc(Cl)c(F)c1)NC12CCC(NC(=O)COc3ccc(F)c(F)c3)(CC1)[C@@H](O)C2` [Compound 587, 2-(4-chloro-3-fluorophenoxy)-N-{(3S)-4-[2-(3,4-difluorophenoxy)acetamido]-3-hydroxybicyclo[2.2.2]octan-1-yl}acetamide], the pEC50 was over 8.00.

Regarding `O=C(COc1ccc(F)c(Cl)c1)NC12CCC(NC(=O)COc3ccc(F)c(Cl)c3)(CC1)[C@@H](O)C2` [Compound 588, N,N′-[(2S)-2-hydroxybicyclo[2.2.2]octane-1,4-diyl]bis[2-(3-chloro-4-fluorophenoxy)acetamide]], the pEC50 was over 8.00.

For `O=C(COc1ccc(C(F)(F)F)nc1)NC12CCC(NC(=O)COc3ccc(Cl)c(F)c3)(CC1)[C@@H](O)C2` [Compound 589, 2-(4-chloro-3-fluorophenoxy)-N-[(2S)-2-hydroxy-4-(2-{[6-(trifluoromethyl)pyridin-3-yl]oxy}acetamido)bicyclo[2.2.2]octan-1-yl]acetamide], the pEC50 is over 8.00.

As for `O=C(COc1ccc(F)c(F)c1)NC12CC(NC(=O)COc3ccc(F)c(Cl)c3)(C1)C2` [Compound 590, 2-(3-chloro-4-fluorophenoxy)-N-{3-[2-(3,4-difluorophenoxy)acetamido]bicyclo[1.1.1]pentan-1-yl}acetamide], the pEC50 is over 8.00.

Take `O=C(COc1ccc(F)c(Cl)c1)NC12CC(NC(=O)COc3ccc4c(c3)OC(F)(F)O4)(C1)C2` [Compound 591, 2-(3-chloro-4-fluorophenoxy)-N-(3-{2-[(2,2-difluoro-2H-1,3-benzodioxol-5-yl)oxy]acetamido}bicyclo[1.1.1]pentan-1-yl)acetamide]: the pEC50 is over 8.00.

Turning to `O=C(COc1ccc(Cl)c(CO)c1)NC12CCC(NC(=O)COc3ccc(Cl)c(CO)c3)(CC1)[C@@H](O)C2` [Compound 592, N,N′-[(2S)-2-hydroxybicyclo[2.2.2]octane-1,4-diyl]bis{2-[4-chloro-3-(hydroxymethyl)phenoxy]acetamide}], the pEC50 was 5.70 to 6.30.

In the case of `O=C(COc1ccc(Cl)c(C(=O)O)c1)NC12CCC(NC(=O)COc3ccc(Cl)c(C(=O)O)c3)(CC1)[C@@H](O)C2` [Compound 593, 3,3′-{[(2S)-2-hydroxybicyclo[2.2.2]octane-1,4-diyl]bis[azanediyl(2-oxoethane-2,1-diyl)oxy]}bis(6-chlorobenzoic acid)], the pEC50 was under 5.70.

For `COC(=O)c1cc(OCC(=O)NC23CCC(NC(=O)COc4ccc(Cl)c(C(=O)OC)c4)(CC2)[C@@H](O)C3)ccc1Cl` [Compound 594, dimethyl 3,3′-{[(2S)-2-hydroxybicyclo[2.2.2]octane-1,4-diyl]bis[azanediyl(2-oxoethane-2,1-diyl)oxy]}bis(6-chlorobenzoate)], the pEC50 was under 5.70.

Take `O=C(COc1ccc(Cl)c(F)c1)N[C@@H]1C[C@H]2CC[C@@H](C1)[C@H]2NC(=O)COc1ccc(Cl)c(F)c1` [Compound 595, N,N′-[(1R,3s,5S,8r)-bicyclo[3.2.1]octane-3,8-diyl]bis[2-(4-chloro-3-fluorophenoxy)acetamide]]: the pEC50 was under 5.70.

Regarding `O=C(COc1ccc(Cl)c(F)c1)NC12CCC(NC(=O)COc3ccc(F)c(Cl)c3)(CC1)[C@@H](O)C2` [Compound 596, 2-(4-chloro-3-fluorophenoxy)-N-{(3S)-4-[2-(3-chloro-4-fluorophenoxy)acetamido]-3-hydroxybicyclo[2.2.2]octan-1-yl}acetamide], the pEC50 was over 8.00.

For `COC(=O)c1cc(OCC(=O)NC23CCC(NC(=O)COc4ccc(Cl)c(F)c4)(CC2)[C@@H](O)C3)ccc1Cl` [Compound 597, methyl 2-chloro-5-[2-({(3S)-4-[2-(4-chloro-3-fluorophenoxy)acetamido]-3-hydroxybicyclo[2.2.2]octan-1-yl}amino)-2-oxoethoxy]benzoate], the pEC50 was 7.30 to 8.00.

With `O=C(COc1ccc(Cl)c(CO)c1)NC12CCC(NC(=O)COc3ccc(Cl)c(F)c3)(CC1)[C@@H](O)C2` [Compound 598, 2-(4-chloro-3-fluorophenoxy)-N-[(2S)-4-{2-[4-chloro-3-(hydroxymethyl)phenoxy]acetamido}-2-hydroxybicyclo[2.2.2]octan-1-yl]acetamide], the pEC50 was over 8.00.

Regarding `CN1C(=O)C2(NC(=O)COc3ccc(Cl)c(Cl)c3)CCC1(NC(=O)COc1ccc(Cl)c(Cl)c1)CC2` [Compound 599, N,N-(2-methyl-3-oxo-2-azabicyclo[2.2.2]octane-1,4-diyl)bis[2-(3,4-dicholorophenoxy)acetamide]], the pEC50 is 7.30 to 8.00.

In the case of `O=C(COc1ccc(Cl)c(Cl)c1)NC12CCC(NC(=O)COc3ccc(Cl)c(Cl)c3)(CC1)C(=O)N2` [Compound 600, N,N′-(3-oxo-2-azabicyclo[2.2.2]octane-1,4-diyl)bis[2-(3,4-dichlorophenoxy)acetamide]], the negative logarithm of the EC50 (pEC50) is over 8.00.

In the case of `O=C(COc1ccc(Cl)c(F)c1)NC12CCC(NC(=O)COc3ccc(Cl)c(Cl)c3)(CC1)C(=O)N2` [Compound 601, 2-(4-chloro-3-fluorophenoxy)-N-{4-[2-(3,4-dichlorophenoxy)acetamido]-3-oxo-2-azabicyclo[2.2.2]octan-1-yl}acetamide], the pEC50 was over 8.00.

As to `O=C(COc1ccc(Cl)c(Cl)c1)NC12CCC(NC(=O)COc3ccc(Cl)c(F)c3)(CC1)C(=O)N2` [Compound 602, 2-(4-chloro-3-fluorophenoxy)-N-{1-[2-(3,4-dichlorophenoxy)acetamido]-3-oxo-2-azabicyclo[2.2.2]octan-4-yl}acetamide], the pEC50 is over 8.00.

For the molecule `O=C(COc1ccc(Cl)c(F)c1)NC12CCC(NC(=O)COc3ccc(Cl)c(F)c3)(CC1)C(=O)N2` [Compound 603, N,N′-(3-oxo-2-azabicyclo[2.2.2]octane-1,4-diyl)bis[2-(4-chloro-3-fluorophenoxy)acetamide]], the pEC50 is over 8.00.

Take `O=C(COc1ccc2c(c1)OC(F)(F)O2)NC12CCC(NC(=O)COc3ccc(Cl)c(Cl)c3)(CC1)C(=O)N2` [Compound 604, 2-(3,4-dichlorophenoxy)-N-(1-{2-[(2,2-difluoro-2H-1,3-benzodioxol-5-yl)oxy]acetamido}-3-oxo-2-azabicyclo[2.2.2]octan-4-yl)acetamide]: the pEC50 was 7.30 to 8.00.

On to `CN1C(=O)C2(NC(=O)COc3ccc(Cl)c(F)c3)CCC1(NC(=O)COc1ccc(Cl)c(F)c1)CC2` [Compound 605, N,N′-(2-methyl-3-oxo-2-azabicyclo[2.2.2]octane-1,4-diyl)bis[2-(4-chloro-3-fluorophenoxy)acetamide]], for which the pEC50 is 6.60 to 7.30.

As to `O=C(Cc1ccc(Cl)cn1)NC12CCC(NC(=O)COc3ccc(Cl)c(F)c3)(CC1)[C@@H](O)C2` [Compound 606, 2-(4-chloro-3-fluorophenoxy)-N-{(2S)-4-[2-(5-chloropyridin-2-yl)acetamido]-2-hydroxybicyclo[2.2.2]octan-1-yl}acetamide], the pEC50 was 6.60 to 7.30.

Regarding `O=C(COc1cccnc1)NC12CCC(NC(=O)COc3ccc(Cl)c(F)c3)(CC1)[C@@H](O)C2` [Compound 607, 2-(4-chloro-3-fluorophenoxy)-N-[(2S)-2-hydroxy-4-{2-[(pyridin-3-yl)oxy]acetamido}bicyclo[2.2.2]octan-1-yl]acetamide], the pEC50 was 6.60 to 7.30.

For `O=C(Cc1ccc(Cl)c(F)c1)NC12CCC(NC(=O)COc3ccc(Cl)c(F)c3)(CC1)[C@@H](O)C2` [Compound 608, 2-(4-chloro-3-fluorophenoxy)-N-{(2S)-4-[2-(4-chloro-3-fluorophenyl)acetamido]-2-hydroxybicyclo[2.2.2]octan-1-yl}acetamide], the negative-log EC50 (pEC50) was 6.60 to 7.30.

Turning to `O=C(COc1ccc(Cl)c(F)c1)NC12CC(NC(=O)CN(CCO)c3ccc(Cl)cc3)(C1)C2` [Compound 609, 2-(4-chloro-3-fluorophenoxy)-N-(3-{2-[(4-chlorophenyl)(2-hydroxyethyl)amino]acetamido}bicyclo[1.1.1]pentan-1-yl)acetamide], the pEC50 is under 5.70.

A word on the pEC50: it is the negative decadic logarithm of the EC50, by convention in mol/L.
